The record followed here is patent US10800791B2, “Triazole ACC inhibitors and uses thereof” (Gilead Apollo, LLC, priority 2015, dated 2020).

Converted amounts (≈) assume the structure as drawn. Read-outs that look alike come from different tables or passages of the source.

As usually defined, the MIC is the lowest concentration that inhibits growth of the organism.

In test [1] the test system is Septoria tritici (St). Nature of the test: Growth inhibition assay of fungal pathogens, St. It counts as cell-based. Conditions: Zymoseptoria tritici, 48 h, Septoria tritici, read-out: Concentration at 90% Inhibition St. Put shortly:
(§1)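 Spore suspension in 17% V8 liquid media; cpd final 50/10/2 or 2/0.4/0.08 ppm, 2% DMSO. OD600 + visual, 24 & 48 h; % inhibition at 48 h vs 2% DMSO ctrl.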

Test [2] relates to C. krusei. Briefly: Antifungal Activity Assay (broth microtiter MIC), C. krusei. Conditions: Pichia kudriavzevii, ATCC6258, 48 h, ATCC 6258, 3 replicates, MIC recorded at 48 h, read-out: MIC, C. krusei ATCC 6258. The test is classed as cell-based, Candida krusei. Put shortly:
(§2)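 Susceptibility was determined by CLSI M27-A3 broth microdilution in RPMI 1640 buffered with MOPS. Growth inhibition was scored visually after 48 h.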

The subject of test [3] is Collectotrichum graminicola (Cg). Nature of the test: Growth inhibition assay of fungal pathogens, Cg. It counts as cell-based. The conditions noted are these: 48 h, Collectotrichum graminicola, read-out: Concentration at 90% Inhibition Cg. The method, boiled down: as §1
Test [4] has as its system Fusarium virguliforme (Fv). Nature of the test: Growth inhibition assay of fungal pathogens, Fv. Conditions: 48 h, read-out: Concentration at 90% Inhibition Fv. The test is classed as cell-based. The method, boiled down:
as §1

Test [5] deals with C. albicans. Nature of the test: Antifungal Activity Assay (broth microtiter MIC), C. albicans. The test is classed as cell-based, Candida albicans. The conditions noted are these: Candida albicans, ATCC90028, 48 h, ATCC 90028, 3 replicates, MIC recorded at 48 h, read-out: MIC, C. albicans ATCC 90028. Put shortly:
as §2

Test [6] has as its system Botrtyis cinerea (Bc). Nature of the test: Growth inhibition assay of fungal pathogens, Bc. The test is classed as cell-based. The conditions noted are these: 48 h, Botrtyis cinerea, read-out: Concentration at 90% Inhibition Bc. The method, boiled down:
as §1

Test [7] relates to Fusarium moniliforme (Fm). Nature of the test: Growth inhibition assay of fungal pathogens, Fm. The test is classed as cell-based. The conditions noted are these: Fusarium verticillioides, 48 h, Fusarium moniliforme, read-out: Concentration at 90% Inhibition Fm. The method, boiled down: as §1
For test [8], the system named is C. parapsilosis. Nature of the test: Antifungal Activity Assay (broth microtiter MIC), C. parapsilosis. It counts as cell-based, Candida parapsilosis. The conditions noted are these: Lodderomyces parapsilosis, ATCC22019, 48 h, ATCC 22019, 3 replicates, MIC recorded at 48 h, read-out: MIC, C. parapsilosis ATCC 22019. The method, boiled down:
as §2

Test [9] has as its system Rhizoctonia solani (Rs). Briefly: Growth inhibition assay of fungal pathogens, Rs. It counts as cell-based. The conditions noted are these: 48 h, mycelial plugs, read-out: Concentration at 90% Inhibition Rs.
The test system of test [10] is Diplodia maydis (Dm). Nature of the test: Growth inhibition assay of fungal pathogens, Dm. Conditions: Stenocarpella maydis, 48 h, Diplodia maydis, read-out: Concentration at 90% Inhibition Dm. It counts as cell-based. Put shortly: as §1
The mark [11] stands for this setting: growth inhibition at 48 hours vs 2% DMSO control.
The mark [12] stands for this setting: growth inhibition vs 2% DMSO control at 48 hours.

Consider `COc1ccc(F)cc1[C@H](Cn1c(=O)n(C(C)(C)C(N)=O)c(=O)c2c(C)c(-n3nccn3)sc21)OCC(C)C` [Compound I-8, (R)-2-(1-(2-(5-fluoro-2-methoxyphenyl)-2-isobutoxyethyl)-5-methyl-2,4-dioxo-6-(2H-1,2,3-triazol-2-yl)-1,4-dihydrothieno[2,3-d]pyrimidin-3(2H)-yl)-2-methylpropanamide], for which the IC90 is > 50 µg/mL in [1] (setting [11]); > 50 µg/mL in test [1] (setting [12]); 2 µg/mL (≈ 3.58 µM) in test [3] (setting [11]); 2 µg/mL (≈ 3.58 µM) in test [3] (setting [12]); 2 µg/mL (≈ 3.58 µM) in test [4] (setting [11]); 2 µg/mL (≈ 3.58 µM) in [4] (setting [12]). For the same compound, the IC90 in test [6] (setting [11]) was 2 µg/mL (≈ 3.58 µM); in [6] (setting [12]), 2 µg/mL (≈ 3.58 µM); in [7] (setting [11]) it was 0.08 µg/mL (≈ 0.143 µM); in test [7] (setting [12]), 0.08 µg/mL (≈ 0.143 µM); in test [9] (setting [11]), 2 µg/mL (≈ 3.58 µM); in test [9] (setting [12]) it was 2 µg/mL (≈ 3.58 µM). The IC90 in test [10] (setting [11]) and in test [10] (setting [12]) was 2 µg/mL (≈ 3.58 µM) each time. Further, the minimal inhibitory concentration (MIC) lay within 1.1 to 2 µg/mL (≈ 1.97 to 3.58 µM) in [2] (Table 3a); 1.01 to 2 µg/mL (≈ 1.81 to 3.58 µM) in test [2] (Table 3b (additional results)); 1.1 to 2 µg/mL (≈ 1.97 to 3.58 µM) in test [5] (Table 3a); 1.01 to 2 µg/mL (≈ 1.81 to 3.58 µM) in [5] (Table 3b (additional results)); 2.1 to 4 µg/mL (≈ 3.76 to 7.16 µM) in [8] (Table 3a); 2.01 to 4 µg/mL (≈ 3.6 to 7.16 µM) in [8] (Table 3b (additional results)).

As for `CCNC(=O)C(C)(C)n1c(=O)c2c(C)c(-n3nccn3)sc2n(C[C@H](OCC(C)C)c2cc(F)ccc2OC)c1=O` [Compound I-9, (R)—N-ethyl-2-(1-(2-(5-fluoro-2-methoxyphenyl)-2-isobutoxyethyl)-5-methyl-2,4-dioxo-6-(2H-1,2,3-triazol-2-yl)-1,4-dihydrothieno[2,3-d]pyrimidin-3(2H)-yl)-2-methylpropanamide], the IC90 in test [1] (setting [11]) is 10 µg/mL (≈ 17 µM); in test [1] (setting [12]) it was > 50 µg/mL; in test [3] (setting [11]), 0.4 µg/mL (≈ 0.682 µM); in test [3] (setting [12]), 0.4 µg/mL (≈ 0.682 µM); in test [4] (setting [11]), 0.4 µg/mL (≈ 0.682 µM); in test [4] (setting [12]) it was 0.4 µg/mL (≈ 0.682 µM). The IC90 in test [6] (setting [11]) amounted to 0.4 µg/mL (≈ 0.682 µM); in test [6] (setting [12]) it was 0.4 µg/mL (≈ 0.682 µM); in [7] (setting [11]), 0.08 µg/mL (≈ 0.136 µM); in test [7] (setting [12]) it was 0.08 µg/mL (≈ 0.136 µM); in test [9] (setting [11]), 0.4 µg/mL (≈ 0.682 µM); in test [9] (setting [12]), 0.4 µg/mL (≈ 0.682 µM). The IC90 in [10] (setting [11]) and in [10] (setting [12]) was 0.4 µg/mL (≈ 0.682 µM) in each case. Also, the minimal inhibitory concentration (MIC) in [2] (Table 3a) was 0.25 to 1 µg/mL (≈ 0.426 to 1.7 µM); in test [2] (Table 3b (additional results)), 0.25 to 1 µg/mL (≈ 0.426 to 1.7 µM); in [5] (Table 3a), 2.1 to 4 µg/mL (≈ 3.58 to 6.82 µM); in [5] (Table 3b (additional results)) it was 1.01 to 2 µg/mL (≈ 1.72 to 3.41 µM); in test [8] (Table 3a), 2.1 to 4 µg/mL (≈ 3.58 to 6.82 µM); in test [8] (Table 3b (additional results)), 1.01 to 2 µg/mL (≈ 1.72 to 3.41 µM).
